According to paper PMC12648656, “Palladium(II) Complexes with Noncovalent Interactions with DNA: Solution Speciation Controlled by Solvent Identity, pH, and Concentration” (Inorganic Chemistry, 2025):

Assay: Stability under light in DMSO by UV-vis
Format: physicochemical
Conditions: first 2.5 h
From the text: The stability of the stock solutions and the effect of diffuse solar irradiation were monitored in DMSO by UV–visible (UV–vis, see Methods) spectra in the 260 to 860 nm wavelength range, and the path length was 1 cm. The initial sample was divided equally into two portions for the stability studies; one portion was irradiated with diffuse light and followed over time, while the other one was stored, protected from light, and measured 1 day after dissolution.

Compound: Clc1ccc(N=C2N[N+](=Cc3c[nH]cn3)[Pd-2]3([S]C(Nc4ccc(Cl)cc4)=N[N+]3=Cc3c[nH]cn3)[S]2)cc1 (stereo not shown) [(2), Bis(1H-imidazole-4-carboxaldehyde-4N-p-chlorophenylthiosemicarbazonato)palladium(II)]
- spectral changes when not protected from light: only minor changes
